For one data set, the target named is dTRPA1 (Canis lupus familiaris, UniProt A0A8I3Q1Q7). The data set is described as follows: Whole-cell patch clamp block of inward current through dTRPA1. In kind it is cell-based, Dog. The procedure:
(§1) Data for TRPA1 inhibition and the selectivity of TRPA1 inhibition was obtained by this method for the compound of Formula (Ia) and included in Table 1 and Table 2. All currents were recorded in whole-cell configuration using EPC-9 and EPC-10 amplifiers and Patchmaster software (HEKA). […] The standard pipette solution consisted of 140 mM CsAsp, 10 mM EGTA, 10 mM HEPES, 2.27 mM MgCl2, 1.91 mM CaCl2, 4 mM MgATP, and 0.1-0.3 mM Na2GTP, with pH adjusted to 7.2 with CsOH. In addition, a solution containing 145 mM CsCl, 10 mM HEPES, 10 mM EGTA and 1 mM MgCl2 (pH 7.2 adjusted with CsOH) can be used. The standard bath solution contained 150 mM NaCl, 10 mM HEPES, 10 mM glucose, 4.5 mM KCl, 1 mM EGTA, 3 mM MgCl2, with pH adjusted to 7.4 with NaOH. In some instances, 2 mM CaCl2 was added in place of EGTA and the concentration of MgCl2 was reduced to 1 mM.
Data were collected either by continuous recordings at −60 mV or by applying voltage ramps from a holding potential of 0 mV every 4 s. Continuous recordings were collected at 400 Hz and digitally filtered off-line at 10 Hz for presentation. Voltage ramps were applied from −100 mV to 100 mV over the course of 400 ms, and data were collected at 10 kHz and filtered at 2.9 kHz. Inward and outward currents were analyzed from the ramps at −80 and 80 mV, respectively. Liquid junction potential correction was not used.
Solutions were switched using a gravity-fed continuous focal perfusion system. To achieve rapid temperature changes, two temperature control and perfusion systems were employed simultaneously. For temperatures ≧22° C., a Warner Instruments bipolar temperature controller (TC-344B) and inline heater (SHM-8) were used. […] Temperatures were confirmed using a thermistor (Warner Instruments, TA-29), with temperatures at the recorded cell estimated to be within +/−2° C. of those reported.
IC50 of compounds was estimated by testing each compound at 5 micromolar and 500 nanomolar. […] IC50 for compounds between 500 nanomolar and 5 micromolar was similarly estimated. […]
A general note: The patch-clamp technique gives a direct electrical read-out from membranes.

In data set [1] the test system is incisional spontaneous pain (guarding). As to the kind of experiment: Surgical incision (Brennan) pain behavior rodent model. In kind it is in vivo, rat. The method, then:
The compound of Formula (Ia) is also active in rodent models of pain in vivo induced by incision of the plantar surface of the hind paw (i.e., the “Brennan Surgical Model”), as described in Example 7. […] Thirty (30) mg/kg of the compound of Formula (Ia) delivered intraperitoneally (2 doses of 15 mg/kg before and immediately after the surgery) reduces spontaneous pain for up to 2 hours after surgery (FIG. 4). The compound of Formula (Ia), the comparator compound of Formula (III) and ketoprofen were tested by the incisional pain test method reported in Brennan et al., Pain, 1996 March; 64(3):493-501 incorporated herein by reference in its entirety. Briefly, in rats under anesthesia, a 1 cm incision through skin and underlying muscle was made in the bottom of one hind paw. The incision was sutured closed and the animals allowed to regain consciousness in their home cage before being placed on a special mesh rack. The blinded observer subjectively assessed and recorded each animal's pain score every 5 minutes for 1 hour. Pain scores were assigned as follows: Score of 0=Injured paw was held flat on the rack and was bearing weight (=uninjured paw); 1=Injured paw was slightly lifted from the rack but was bearing some weight; 2=Injured paw was flat but was bearing no weight, or heel was lifted high off the rack with only toes touching. At the end of each hour, pain scores were added up and the final score recorded ([…]). In a typical study the efficacy of the drug treatment was determined by comparing the cumulative guarding scores at 1-2 and 3-4 hours following surgical injury to the cumulative guarding scores of animals that received the vehicle.

A short description of data set [2]: Oral bioavailability pharmacokinetic study. The conditions noted are these: rat, plasma, PO versus IV. In kind it is in vivo. The method, then: The potency and pharmacokinetic (PK) properties of (a) the compound of Formula (Ia); and (b) comparator compound of Formula (III) were evaluated. Bioavailability was measured as well. A pharmacokinetic study was performed to obtain a plasma drug concentration vs time plot for the drug after both intravenous (IV) and oral (PO) administration. The absolute bioavailability is the dose-corrected area under curve (AUC) non-intravenous divided by AUC intravenous. The formula for calculating F for a drug administered by the oral route (PO) is given below.
The bioavailability was calculated using the equation shown below:
% F=AUC PO×Dose IV/AUC IV×Dose PO

Data set [3] concerns formalin-induced pain behavior. The data set is described as follows: Formalin-induced pain behavior in vivo rodent model. Details: species or system rat. As to conditions: vehicle 88.6. The text has this:
The data shown in Tables 3a, 3b, and 3c and FIG. 2 were obtained by administering a pharmaceutical composition comprising the compound of Formula (Ia) to rodents in the formalin-induced pain duration at various doses according to Example 5. Specifically, the data in Tables 3a, 3b, and 3c and FIG. 2 were obtained by intraperitoneal (i.p.) administration of compositions containing different concentrations of the compound of Formula (Ia), a comparator composition containing recited amounts of the comparator compound (e.g., 150 mg/kg of the comparator compound of Formula (II) in Table 3a) and a control composition containing the vehicle (e.g., without the compound of Formula (Ia) or a comparator compound).
The compound of Formula (Ia) and the comparator compounds of Formula (II) and Formula (III) were tested in the formalin-induced pain test reported by Dubuisson et al., Pain 1977 December; 4(2):161-74 (incorporated herein by reference in its entirety). Dubuisson et al. (1977) describe a method for assessing pain and analgesia in rats and cats. Briefly, dilute formalin (50 μL of 3% formalin) is injected into the plantar surface of the hind paw. […] The individual responsible for counting the pain behaviors in a particular study is blinded to the treatment groups.
Rats were treated with the HCl salt of Compound (Ia) at various doses (3, 10, 30, and 50 mg/kg, IP) or with the vehicle (IP).

The next data set concerns the target hNaV1.2 (Homo sapiens, UniProt Q99250). As to the kind of experiment: Patch clamp selectivity, hNaV1.2. In kind it is cell-based. The procedure:
as §1
Data were collected either by continuous recordings at −60 mV or by applying voltage ramps from a holding potential of 0 mV every 4 s. […] Inward and outward currents were analyzed from the ramps at −80 and 80 mV, respectively. […]
Solutions were switched using a gravity-fed continuous focal perfusion system. […] Temperatures were confirmed using a thermistor (Warner Instruments, TA-29), with temperatures at the recorded cell estimated to be within +/−2° C. of those reported. […]

Molecules are shown by their SMILES. “Also recorded” adds a separate entry of the source. Like-named read-outs stand apart in the source and are kept apart here. Bounds are passed on as bounds.

Sequence of dTRPA1 (A0A8I3Q1Q7 1-1118): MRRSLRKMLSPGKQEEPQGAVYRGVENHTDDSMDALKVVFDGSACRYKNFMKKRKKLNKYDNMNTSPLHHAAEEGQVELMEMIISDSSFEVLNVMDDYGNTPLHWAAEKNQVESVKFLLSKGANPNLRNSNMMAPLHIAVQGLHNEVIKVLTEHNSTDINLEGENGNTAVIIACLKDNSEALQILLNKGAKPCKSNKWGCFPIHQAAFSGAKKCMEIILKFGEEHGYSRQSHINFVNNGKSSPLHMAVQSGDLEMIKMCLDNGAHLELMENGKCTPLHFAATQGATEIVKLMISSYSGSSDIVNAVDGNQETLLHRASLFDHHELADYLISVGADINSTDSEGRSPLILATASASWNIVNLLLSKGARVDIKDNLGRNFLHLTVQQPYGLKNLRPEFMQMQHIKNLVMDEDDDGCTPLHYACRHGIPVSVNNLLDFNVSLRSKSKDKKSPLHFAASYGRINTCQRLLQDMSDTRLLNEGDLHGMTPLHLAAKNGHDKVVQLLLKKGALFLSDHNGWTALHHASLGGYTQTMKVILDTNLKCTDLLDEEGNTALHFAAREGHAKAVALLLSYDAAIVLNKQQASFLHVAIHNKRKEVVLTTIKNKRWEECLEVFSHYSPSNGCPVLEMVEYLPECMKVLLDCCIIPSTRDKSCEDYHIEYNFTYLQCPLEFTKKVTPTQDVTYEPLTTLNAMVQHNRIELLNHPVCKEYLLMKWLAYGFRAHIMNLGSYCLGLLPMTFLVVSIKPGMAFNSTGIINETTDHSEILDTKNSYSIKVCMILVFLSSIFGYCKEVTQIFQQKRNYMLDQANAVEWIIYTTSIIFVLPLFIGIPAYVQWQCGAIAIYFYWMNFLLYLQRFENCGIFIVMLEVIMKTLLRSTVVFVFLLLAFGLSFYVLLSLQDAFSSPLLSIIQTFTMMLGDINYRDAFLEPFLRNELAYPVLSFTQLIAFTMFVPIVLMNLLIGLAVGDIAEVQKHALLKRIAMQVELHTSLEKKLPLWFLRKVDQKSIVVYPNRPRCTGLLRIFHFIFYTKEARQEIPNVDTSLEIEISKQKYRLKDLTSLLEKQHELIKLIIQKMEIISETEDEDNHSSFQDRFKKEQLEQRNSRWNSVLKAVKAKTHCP
Sequence of hNaV1.2 (Q99250 whole entry): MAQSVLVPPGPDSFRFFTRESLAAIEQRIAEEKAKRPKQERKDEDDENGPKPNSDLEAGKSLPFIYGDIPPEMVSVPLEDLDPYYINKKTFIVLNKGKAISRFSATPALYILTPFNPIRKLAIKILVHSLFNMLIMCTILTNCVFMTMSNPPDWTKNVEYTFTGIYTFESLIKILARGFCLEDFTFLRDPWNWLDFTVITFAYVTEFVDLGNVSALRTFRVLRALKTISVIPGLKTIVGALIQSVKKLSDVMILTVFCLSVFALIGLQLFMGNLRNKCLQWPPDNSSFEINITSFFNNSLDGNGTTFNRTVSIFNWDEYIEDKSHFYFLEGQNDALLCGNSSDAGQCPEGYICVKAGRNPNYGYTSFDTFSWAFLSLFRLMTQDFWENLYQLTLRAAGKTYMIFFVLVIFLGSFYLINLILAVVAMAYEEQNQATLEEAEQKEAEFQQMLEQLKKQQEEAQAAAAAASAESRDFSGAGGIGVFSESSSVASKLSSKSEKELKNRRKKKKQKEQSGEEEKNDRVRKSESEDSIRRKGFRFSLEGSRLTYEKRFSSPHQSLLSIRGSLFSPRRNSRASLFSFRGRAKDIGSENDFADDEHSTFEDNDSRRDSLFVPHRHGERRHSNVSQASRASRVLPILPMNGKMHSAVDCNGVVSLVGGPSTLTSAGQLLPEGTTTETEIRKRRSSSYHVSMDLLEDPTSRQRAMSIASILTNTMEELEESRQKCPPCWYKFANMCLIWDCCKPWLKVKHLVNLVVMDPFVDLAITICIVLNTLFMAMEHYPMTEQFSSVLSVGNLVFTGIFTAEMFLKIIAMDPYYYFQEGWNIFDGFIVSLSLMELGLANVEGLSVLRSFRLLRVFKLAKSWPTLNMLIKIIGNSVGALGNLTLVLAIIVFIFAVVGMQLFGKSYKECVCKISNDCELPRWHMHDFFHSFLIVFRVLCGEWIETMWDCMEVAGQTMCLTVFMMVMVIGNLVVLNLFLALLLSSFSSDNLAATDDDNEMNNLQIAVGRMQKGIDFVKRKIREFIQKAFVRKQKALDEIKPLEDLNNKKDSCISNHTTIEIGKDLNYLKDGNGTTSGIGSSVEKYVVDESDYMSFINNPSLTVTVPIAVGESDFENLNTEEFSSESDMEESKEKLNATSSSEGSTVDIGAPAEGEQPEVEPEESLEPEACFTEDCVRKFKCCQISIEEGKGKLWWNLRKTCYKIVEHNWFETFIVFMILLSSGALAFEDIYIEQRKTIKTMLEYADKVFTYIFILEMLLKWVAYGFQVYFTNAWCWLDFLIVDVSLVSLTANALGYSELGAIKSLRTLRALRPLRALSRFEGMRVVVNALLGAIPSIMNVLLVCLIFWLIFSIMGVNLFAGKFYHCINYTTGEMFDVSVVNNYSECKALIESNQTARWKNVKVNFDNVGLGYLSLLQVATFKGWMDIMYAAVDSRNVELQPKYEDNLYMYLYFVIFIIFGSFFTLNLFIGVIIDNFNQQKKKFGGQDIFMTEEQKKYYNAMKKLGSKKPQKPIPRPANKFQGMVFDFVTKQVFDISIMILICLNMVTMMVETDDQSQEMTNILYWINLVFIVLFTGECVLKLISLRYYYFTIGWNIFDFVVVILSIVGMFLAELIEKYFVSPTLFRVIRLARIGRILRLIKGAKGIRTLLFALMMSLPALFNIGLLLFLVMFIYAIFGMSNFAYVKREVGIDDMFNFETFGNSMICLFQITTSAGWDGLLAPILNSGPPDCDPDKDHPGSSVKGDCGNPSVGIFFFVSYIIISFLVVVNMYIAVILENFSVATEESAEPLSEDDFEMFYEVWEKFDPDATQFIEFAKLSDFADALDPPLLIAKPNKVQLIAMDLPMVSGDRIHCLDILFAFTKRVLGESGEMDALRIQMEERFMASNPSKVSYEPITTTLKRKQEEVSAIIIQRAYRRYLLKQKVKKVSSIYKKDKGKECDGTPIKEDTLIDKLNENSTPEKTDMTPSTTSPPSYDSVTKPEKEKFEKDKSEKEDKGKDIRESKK

Usually IC50 stands for the point on the concentration scale where inhibition reaches its midpoint. For orientation: bioavailability means dose-corrected exposure relative to a reference, in per cent. With `C[C@H]1CCCN1c1ncc(-c2cccc(NC(=O)Cn3cnc4c3c(=O)n(C)c(=O)n4C)n2)cn1` [Formula (Ia)], the half-maximal inhibitory concentration (IC50) on dTRPA1 (class symbol, read-out: Potency (IC50) Dog) is at least 100 nM; at dTRPA1 (dTRPA1, Dog, current activation 10 micromolar AITC, read-out: IC50 Inward current) it was 102 ± 20 nM; against hNaV1.2 (Voltage, Peak Inward (0 mV)) it was over 10000 nM. For the same compound, the “time after surgery for which spontaneous pain is reduced” value in data set [1] (30 mg/kg intraperitoneally (2 doses of 15 mg/kg before and immediately after the surgery)) was “up to 2 hours”; in data set [1] (60 mg/kg intraperitoneally (2 doses of 30 mg/kg before and immediately after the surgery)) it was “up to 4 hours”. Further, the “reduction of spontaneous pain compared with ketoprofen” value in data set [1] (60 mg/kg i.p. versus ketoprofen 2 doses of 2 mg/kg intraperitoneally) was “equivalent to ketoprofen; also recorded: better than ketoprofen”. For the same compound, the bioavailability in data set [2] (oral, fed rats, read-out: Bioavailability (Rat) Fed) was over 50%; in data set [2] (po, fasted rats, read-out: Bioavailability (Rat) Fasted), 25 to 50%; in data set [2] (po, fed rats, read-out: Bioavailability (Rat) Fed) it was over 50%. Moreover, the “Duration of Pain Behavior” value in data set [3] (3 mg/kg i.p.) came to 82.3 s; in data set [3] (10 mg/kg i.p.), 85.8 s; in data set [3] (30 mg/kg i.p.), 49.8 s; in data set [3] (50 mg/kg i.p.), 5.9 s. Besides, the “Fold Selectivity Compared to TRPA1” value at hNaV1.2 is over 100 fold.

The values are drawn from US20140158116A1, “INHIBITING TRPA1 FOR THE TREATMENT OF ASTHMA” (Cubist Pharmaceuticals, Inc., priority 2012, published 2014).
